Measured values: patent US9206200B2, “N-linked lactam M1 receptor positive allosteric mogulators” (Merck Sharp & Dohme Corp., priority 2011, dated 2015)
Like-named read-outs stand apart in the source and are kept apart here.

Target: T1, acetylcholine muscarinic M1 receptor (Homo sapiens, UniProt P11229)
T1 construct: expressed in transfected cells; host or cells: CHOnfat cells (CHO cells with an NFAT reporter) expressing hM1, kept under Geneticin selection
T1 sequence (P11229 1-460): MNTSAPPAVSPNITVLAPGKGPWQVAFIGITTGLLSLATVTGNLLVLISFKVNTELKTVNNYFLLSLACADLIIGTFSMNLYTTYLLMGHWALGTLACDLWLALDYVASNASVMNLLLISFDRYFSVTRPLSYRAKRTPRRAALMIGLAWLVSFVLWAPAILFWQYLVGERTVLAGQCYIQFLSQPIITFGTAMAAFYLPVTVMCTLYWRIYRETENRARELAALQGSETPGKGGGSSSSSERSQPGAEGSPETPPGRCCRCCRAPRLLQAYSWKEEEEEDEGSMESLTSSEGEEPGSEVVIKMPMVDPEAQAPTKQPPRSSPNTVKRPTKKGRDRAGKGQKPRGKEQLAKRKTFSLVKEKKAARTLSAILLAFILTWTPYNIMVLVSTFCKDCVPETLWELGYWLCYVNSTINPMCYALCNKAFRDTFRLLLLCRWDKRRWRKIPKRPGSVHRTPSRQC
Test: muscarinic FLIPR assay: intracellular calcium in CHOnfat/hM1 cells, potentiation of EC20 acetylcholine
Format: cell-based
Details: EC20 acetylcholine (3 nM final)
In short: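 CHOnfat cells stably expressing human M1, Fluo-4AM-loaded, in HBSS with 20 mM HEPES, 2.5 mM probenecid, 1% BSA. Compounds preincubated 4 min (printed "4 mM") before an EC20 acetylcholine challenge (3 nM final). FLIPR intracellular Ca²⁺ signal compared with 3 nM acetylcholine alone to detect potentiation.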

[1] = Table 1, CHOnfat/hM1 cells, FLIPR, read-out: M1 Pot.
[2] = Table 2, CHOnfat/hM1 cells, FLIPR, read-out: M1 Pot.

| SMILES | EC50 [1] [nM] | EC50 [2] [nM] | also measured |
| --- | --- | --- | --- |
| O=C1c2cc(CN3CCOCC3)c3ccccc3c2CN1C1CCCCC1O (stereo not shown) [Example 24, 2-(2-hydroxycyclohexyl)-5-(morpholin-4-ylmethyl)-1,2-dihydro-3H-benzo[e]isoindol-3-one] | 150 | – | – |
| O=C1c2cc(CN3C[C@@H](F)[C@H](F)C3)c3ccccc3c2CN1C1CCCCC1O (relative stereo) [Example 29, 5-{[trans-3,4-difluoropyrrolidin-1-yl]methyl}-2-(2-hydroxycyclohexyl)-1,2-dihydro-3H-benzo[e]isoindol-3-one] | 240 | – | – |
| N#CC1CCN(Cc2cc3c(c4ncccc24)CN([C@H]2CCCC[C@@H]2O)C3=O)CC1 [Example 92, 1-({8-[(1S,2S)-2-hydroxycyclohexyl]-7-oxo-8,9-dihydro-7H-pyrrolo[3,4-h]quinolin-5-yl}methyl)piperidine-4-carbonitrile] | – | 72 | – |
| O=C1c2cc(CN3CCCCC3)c3ccccc3c2CN1[C@H]1CCCC[C@@H]1O [Example 11] | 4900 | – | – |
| C[C@@H]1c2c(cc(CN3CCC(F)(c4ccccn4)CC3)c3cccnc23)C(=O)N1[C@H]1CCCC[C@@H]1O [Example 153, (9R)-5-[(4-fluoro-4-pyridin-2-ylpiperidin-1-yl)methyl]-8-[(1S,2S)-2-hydroxycyclohexyl]-9-methyl-8,9-dihydro-7H-pyrrolo[3,4-h]quinolin-7-one] | – | 8 | – |
| CS(=O)(=O)c1ccc(N2CCN(Cc3cc4c(c5ccccc35)CN([C@H]3CCCC[C@@H]3O)C4=O)CC2)cc1 [Example 68, 2-[(1S,2S)-2-hydroxycyclohexyl]-5-({4-[4-(methylsulfonyl)phenyl]piperazin-1-yl}methyl)-1,2-dihydro-3H-benzo[e]isoindol-3-one] | 47 | – | – |
| CC1c2c(cc(CN3CCC(c4ccccc4)CC3)c3cccnc23)C(=O)N1C1CCCCC1O (stereo not shown) [Example 140, 8-(2-hydroxycyclohexyl)-9-methyl-5-[(4-phenylpiperidin-1-yl)methyl]-8,9-dihydro-7H-pyrrolo[3,4-h]quinolin-7-one] | – | 3200 | – |
| O=C1c2cc(CN3CCC(F)(F)CC3)c3ccccc3c2CN1C1CCCCC1O (stereo not shown) [Example 25, 5-[(4,4-difluoropiperidin-1-yl)methyl]-2-(2-hydroxycyclohexyl)-1,2-dihydro-3H-benzo[e]isoindol-3-one] | 12 | – | – |
| Cn1cc(N2CCN(Cc3cc4c(c5ccccc35)CN([C@H]3CCCC[C@@H]3O)C4=O)CC2)cn1 [Example 80, 2-[(1S,2S)-2-hydroxycyclohexyl]-5-{[4-(1-methyl-1H-pyrazol-4-yl)piperazin-1-yl]methyl}-1,2-dihydro-3H-benzo[e]isoindol-3-one] | 1620 | – | – |
| O=C1c2cc(CN3CCC(F)(c4ccccc4)CC3)c3ccccc3c2CN1[C@@H]1CCCC[C@H]1O [Example 53, 5-[(4-fluoro-4-phenylpiperidin-1-yl)methyl]-2-[(1R,2R)-2-hydroxycyclohexyl]-1,2-dihydro-3H-benzo[e]isoindol-3-one] | 248 | – | – |
| O=C1c2cc(CN3CCN(c4ccccn4)CC3)c3ccccc3c2CN1c1ccccc1F [Example 75, 2-(2-fluorophenyl)-5-{[4-(pyridin-2-yl)piperazin-1-yl]methyl}-1,2-dihydro-3H-benzo[e]isoindol-3-one] | 78 | – | – |
| O=C1c2cc(CN3CCCC(F)(F)C3)c3ccccc3c2CN1C1CCCCC1O (stereo not shown) [Example 18, 5-[(3,3-difluoropiperidin-1-yl)methyl]-2-(2-hydroxycyclohexyl)-1,2-dihydro-3H-benzo[e]isoindol-3-one] | 160 | – | – |
| N#CC1(c2ccccn2)CCN(Cc2cc3c(c4ccccc24)CN(C2CCCOC2)C3=O)CC1 (stereo not shown) [Example 55, 1-{[3-oxo-2-(tetrahydro-2H-pyran-3-yl)-2,3-dihydro-1H-benzo[e]isoindol-5-yl]methyl}-4-pyridin-2-ylpiperidine-4-carbonitrile] | 1500 | – | – |
| CC1c2c(cc(CN3CCN(c4cnn(C)c4)CC3)c3cccnc23)C(=O)N1C1CCCCC1O (stereo not shown) [Example 158, 8-(2-hydroxycyclohexyl)-9-methyl-5-{[4-(1-methyl-1H-pyrazol-4-yl)piperazin-1-yl]methyl}-8,9-dihydro-7H-pyrrolo[3,4-h]quinolin-7-one] | – | 70 | – |
| CN1CCN(Cc2cc3c(c4ccccc24)CN([C@H]2CCCC[C@@H]2O)C3=O)CC1=O [Example 13, 2-[(1S,2S)-2-hydroxycyclohexyl]-5-[(4-methyl-3-oxopiperazin-1-yl)methyl]-1,2-dihydro-3H-benzo[e]isoindol-3-one] | 560 | – | – |
| CCc1cccc(C2(C#N)CCN(Cc3cc4c(c5ccccc35)CN([C@H]3CCCC[C@@H]3O)C4=O)CC2)n1 [Example 5, 4-(6-Ethylpyridin-2-yl)-1-({2-[(1S,2S)-hydroxycyclohexyl]-3-oxo-2,3-dihydro-1H-benzo[e]isoindol-5-yl}methyl)piperidine-4-carbonitrile] | – | – | EC50 (Table 3, inflection point calculated from the FLIPR values, read-out: IP Value): 55 nM |
| CC1c2c(cc(CN3CCN(c4ccc(F)cc4)CC3)c3cccnc23)C(=O)N1C1CCCCC1O (stereo not shown) [Example 172, 5-{[4-(4-fluorophenyl)piperazin-1-yl]methyl}-8-(2-hydroxycyclohexyl)-9-methyl-8,9-dihydro-7H-pyrrolo[3,4-h]quinolin-7-one] | – | 480 | – |

More lines, main results first:

| EC50 [1] [nM] | EC50 [2] [nM] | SMILES | also measured |
| --- | --- | --- | --- |
| – | 23 | O=C1c2cc(CN3CCN(c4ccc(F)cc4)CC3)c3cccnc3c2CN1C1CCCCC1O (stereo not shown) [Example 171, 5-{[4-(4-fluorophenyl)piperazin-1-yl]methyl}-8-(2-hydroxycyclohexyl)-8,9-dihydro-7H-pyrrolo[3,4-h]quinolin-7-one] | – |
| 93 | – | N#CC1CCN(Cc2cc3c(c4ccccc24)CN([C@H]2CCCC[C@@H]2O)C3=O)CC1 [Example 20, 1-({2-[(1S,2S)-2-hydroxycyclohexyl]-3-oxo-2,3-dihydro-1H-benzo[e]isoindol-5-yl}methyl)piperidine-4-carbonitriIe] | – |
| – | 108 | O=C1c2cc(CN3CCCC(F)C3)c3cccnc3c2CN1C1CCCCC1O (stereo not shown) [Example 121, 5-[(3-fluoropiperidin-1-yl)methyl]-8-(2-hydroxycyclohexyl)-8,9-dihydro-7H-pyrrolo[3,4-h]quinolin-7-one] | – |
| 160 | – | O=C1c2cc(CN3CCC(F)CC3)c3ccccc3c2CN1C1CCCCC1O (stereo not shown) [Example 26, 5-[(4-fluoropiperidin-1-yl)methyl]-2-(2-hydroxycyclohexyl)-1,2-dihydro-3H-benzo[e]isoindol-3-one] | – |
| – | 1200 | O=C1c2cc(CN3CCC(C4CC4)CC3)c3cccnc3c2CN1C1CCCCC1O (stereo not shown) [Example 90, 5-[(4-cyclopropylpiperidin-1-yl)methyl]-8-(2-hydroxycyclohexyl)-8,9-dihydro-7H-pyrrolo[3,4-h]quinolin-7-one] | – |
| – | 15 | CC1c2c(cc(CN3CCC(F)(F)CC3)c3cccnc23)C(=O)N1[C@@H]1CCCC[C@@H]1O (stereo partly drawn) [Example 104, 5-[(4,4-difluoropiperidin-1-yl)methyl]-8-[(1R,2S)-2-hydroxycyclohexyl]-9-methyl-8,9-dihydro-7H-pyrrolo[3,4-h]quinolin-7-one] | – |
| – | 97 | O=C1c2cc(CN3CCC(C(F)(F)F)CC3)c3cccnc3c2CN1C1CCCCC1O (stereo not shown) [Example 123, 8-(2-hydroxycyclohexyl)-5-{[4-(trifluoromethyl)piperidin-1-yl]methyl}-8,9-dihydro-7H-pyrrolo[3,4-h]quinolin-7-one] | – |
| 480 | – | O=C1c2cc(CN3CCC(O)CC3)c3ccccc3c2CN1C1CCCCC1O (stereo not shown) [Example 22, 2-(2-hydroxycyclohexyl)-5-[(4-hydroxypiperidin-1-yl)methyl]-1,2-dihydro-3H-benzo[e]isoindol-3-one] | – |
